O=C(O)c1cccc(C(=O)O)n1
Conditions	solubility (mole fraction)
in 1,4-dioxane, 293.15 K	0.00197
in 1,4-dioxane, 298.15 K	0.00219
in 1,4-dioxane, 303.15 K	0.0025
in 1,4-dioxane, 308.15 K	0.00291
in 1,4-dioxane, 313.15 K	0.00336
in 1,4-dioxane, 318.15 K	0.00393
in 1,4-dioxane, 323.15 K	0.00481
in 1,4-dioxane, 328.15 K	0.00567
in 1,4-dioxane, 333.15 K	0.00671
in THF, 278.15 K	0.00256
in THF, 283.15 K	0.00275
in THF, 288.15 K	0.00302
in THF, 293.15 K	0.00338
in THF, 298.15 K	0.00381
in THF, 303.15 K	0.00421
in THF, 308.15 K	0.00462
in THF, 313.15 K	0.00494
in THF, 318.15 K	0.00549
in acetic acid, 293.15 K	0.000799
in acetic acid, 298.15 K	0.000876
in acetic acid, 303.15 K	0.000991
in acetic acid, 308.15 K	0.00116
in acetic acid, 313.15 K	0.00131
in acetic acid, 318.15 K	0.00156
in acetic acid, 323.15 K	0.00177
in acetic acid, 328.15 K	0.00197
in acetic acid, 333.15 K	0.00227
in acetonitrile, 278.15 K	0.000183
in acetonitrile, 283.15 K	0.000225
in acetonitrile, 288.15 K	0.000258
in acetonitrile, 293.15 K	0.000306
in acetonitrile, 298.15 K	0.000379
in acetonitrile, 303.15 K	0.000453
in acetonitrile, 308.15 K	0.000548
in acetonitrile, 313.15 K	0.000653
in acetonitrile, 318.15 K	0.000779
in ethanol, 278.15 K	0.00378
in ethanol, 288.15 K	0.00492
in ethanol, 293.15 K	0.00579
in ethanol, 298.15 K	0.00702
in ethanol, 303.15 K	0.00846
in ethanol, 308.15 K	0.00974
in ethanol, 313.15 K	0.0114
in ethanol, 318.15 K	0.0142
in ethyl acetate, 278.15 K	0.000247
in ethyl acetate, 283.15 K	0.000353
in ethyl acetate, 288.15 K	0.000602
in ethyl acetate, 293.15 K	0.000897
in ethyl acetate, 298.15 K	0.00131
in ethyl acetate, 303.15 K	0.00215
in ethyl acetate, 308.15 K	0.00329
in ethyl acetate, 313.15 K	0.00477
in ethyl acetate, 318.15 K	0.00742
in formic acid, 278.15 K	0.00285
in formic acid, 283.15 K	0.00305
in formic acid, 288.15 K	0.00326
in formic acid, 293.15 K	0.00361
in formic acid, 298.15 K	0.00408
in formic acid, 303.15 K	0.00456
in formic acid, 308.15 K	0.00507
in formic acid, 313.15 K	0.00596
in formic acid, 318.15 K	0.00694
in isopropanol, 278.15 K	0.0038
in isopropanol, 283.15 K	0.00417
in isopropanol, 288.15 K	0.00485
in isopropanol, 293.15 K	0.00555
in isopropanol, 298.15 K	0.00638
in isopropanol, 303.15 K	0.00735
in isopropanol, 308.15 K	0.00896
in isopropanol, 313.15 K	0.0106
in isopropanol, 318.15 K	0.0125
in methanol, 278.15 K	0.00449
in methanol, 283.15 K	0.0048
in methanol, 288.15 K	0.00547
in methanol, 293.15 K	0.00676
in methanol, 298.15 K	0.00874
in methanol, 303.15 K	0.0118
in methanol, 308.15 K	0.0155
in methanol, 313.15 K	0.0209
in methanol, 318.15 K	0.026
in n-propanol, 278.15 K	0.00311
in n-propanol, 283.15 K	0.00361
in n-propanol, 288.15 K	0.00433
in n-propanol, 293.15 K	0.00512
in n-propanol, 298.15 K	0.00632
in n-propanol, 303.15 K	0.00761
in n-propanol, 308.15 K	0.00892
in n-propanol, 313.15 K	0.0107
in n-propanol, 318.15 K	0.0135
in toluene, 278.15 K	0.000365
in toluene, 283.15 K	0.000582
in toluene, 288.15 K	0.000848
in toluene, 293.15 K	0.00119
in toluene, 298.15 K	0.00175
in toluene, 303.15 K	0.00253
in toluene, 308.15 K	0.00356
in toluene, 313.15 K	0.00487
in toluene, 318.15 K	0.00589
